Where two headings read alike, the source gives them in different places.
What was measured:
[1] = tested on: human vascular smooth cell proliferation; test: Inhibition of smooth muscle cell proliferation (3H-thymidine); assay type: cell-based; conditions: 10% FCS
Procedure: Human saphenous veins were cultured by standard explant methods (J. Cardiovasc., Pharmacol. 1999, 33(2), 204-11). Tissues were collected into sterile pots containing PBS, penicillin and streptomycin. Under sterile tissue culture conditions, tissues were cut into small pieces (approximately 1 mg weight) and placed into a standard culture medium containing 20% fetal calf serum (FCS) for several days (medium changed every 2-4 days). ^3H-thymidine was measured in the DNA fraction of cells cultured into 48 well plates. Cells were cultured to confluence in the medium containing 10% FCS. Cells were deprived of serum for 24 h before the addition of 10% FCS, together with different concentration of steroids. After 24 h, ^3H-thymidine was added to the cells for 4 h. Cells were washed with phosphate buffered saline and ethanol. DNA was extracted with sodium hydroxide solution and the ^3H material counted by scintillation. The data represents observations made in triplicate wells.
Table 2 reports results obtained on the inhibitory effect of the tested compounds on human vascular smooth cell proliferation.

[2] = tested on: rabbit corpus cavernosum smooth muscle; test: Inhibition of smooth muscle contraction, rabbit corpus cavernosum in organ bath; parameters: species or system New Zealand White Rabbits; conditions: Oryctolagus cuniculus, pre-contracted with phenylephrine (10 μM)
Procedure: (§1) New Zealand White Rabbits (2.0-2.5 kg) were killed by cervical dislocation, cavernosal tissue (corpus canvernosus) and aorta excised.
(§2) The tissue was mounted in organ baths for recording of isometric tension, according to the method described by Khan MA et al (BJU Int. 1999 84(6):720-4). Tissues were pre-contracted with phenylephrine (10 μM) and relaxation responses to carbachol assessed in the presence of the compound to be tested.
(§3) The compound of the invention used in the assay was 2-acetyloxybenzoic acid 6-(nitroxymethyl)-2-pyridinylmethyl ester hydrochloride (NCX 4050), which synthesis is described in preceding example 1.
(§4) The reference compound was 2-acetoxybenzoic acid (3-nitroxymethyl)phenyl ester of formula [drawing 34]

[3] = tested on: rabbit aorta smooth muscle; test: Inhibition of smooth muscle contraction, rabbit aorta in organ bath; parameters: species or system New Zealand White Rabbits; conditions: Oryctolagus cuniculus, pre-contracted with phenylephrine (10 μM)
Procedure: as §1, §2, §3, §4

[4] = concentration (log M) −4, human saphenous vein cells
[5] = concentration (log M) −5, human saphenous vein cells

SMILES	% inhibition cell proliferation [1, 4] [%]	% inhibition cell proliferation [1, 5] [%]	inhibition at 10 µM ([2]; read-out: % inhibition rabbit corpus cav, concentration (log M) −4) [%]	inhibition at 10 µM ([2]; read-out: % inhibition rabbit corpus cav, concentration (log M) −5) [%]	inhibition at 10 µM ([3]; read-out: % inhibition rabbit aorta, concentration (log M) −5) [%]	inhibition at 10 µM ([2]; concentration (log M) −5, read-out: % inhibition rabbit corpus cav) [%]	inhibition at 100 µM ([3]; concentration (log M) −4) [%]	inhibition at 10 µM ([3]; concentration (log M) −5, read-out: % inhibition rabbit aorta) [%]
CC(=O)Oc1ccccc1C(=O)OCc1cccc(CO[N+](=O)[O-])n1.Cl [NCX 4050, 2-Acetyloxybenzoic Acid 6-(Nitroxymethyl)-2-pyridinylmethyl Ester Chlorhydrate]	95	82	85	63	80	–	–	–
CC(=O)Oc1ccccc1C(=O)Oc1cccc(CO[N+](=O)[O-])c1 [NCX 4016, 2-acetoxybenzoic acid (3-nitroxymethyl)phenyl ester]	60	43	–	–	–	14	20	18
